These results are taken from the NIST ThermoML archive (doi:10.1016/j.jct.2018.04.004).

This data set can be described thus: xn = mol fraction of the nth substance listed. Conditions: Liquid, pressure decay method, x1 = 0.

With `FC(C(F)(F)F)C(F)(F)F` [1,1,1,2,3,3,3-heptafluoropropane] + CCCCCC[n+]1ccn(C)c1.O=S(=O)([N-]S(=O)(=O)C(F)(F)F)C(F)(F)F, the binary diffusion coefficient is, setting by setting: (303.15 K, 99.7 kPa) 2.72e-10 m2/s; (313.15 K, 99.6 kPa) 3.5e-10 m2/s; (323.15 K, 97.1 kPa) 5.28e-10 m2/s; (333.15 K, 105 kPa) 9.6e-10 m2/s; (343.15 K, 104.6 kPa) 1.26e-09 m2/s.
In the case of `FC(F)(F)CC(F)(F)F` [1,1,1,3,3,3-hexafluoropropane] + CCCCCC[n+]1ccn(C)c1.O=S(=O)([N-]S(=O)(=O)C(F)(F)F)C(F)(F)F, the binary diffusion coefficient (303.15 K, 86 kPa) turned out to be 1.55e-10 m2/s; the binary diffusion coefficient (313.15 K, 85.5 kPa) stood at 2.4e-10 m2/s; the binary diffusion coefficient (323.15 K, 95.7 kPa) worked out at 4.09e-10 m2/s; the binary diffusion coefficient (333.15 K, 90.1 kPa) amounted to 5.96e-10 m2/s; the binary diffusion coefficient (343.15 K, 90.7 kPa) was 8.42e-10 m2/s.
Turning to `FC(F)CC(F)(F)F` [1,1,1,3,3-pentafluoropropane] + CCCCCC[n+]1ccn(C)c1.O=S(=O)([N-]S(=O)(=O)C(F)(F)F)C(F)(F)F, the binary diffusion coefficient runs as follows: (303.15 K, 50.4 kPa) 8.4e-11 m2/s; (313.15 K, 63.9 kPa) 1.22e-10 m2/s; (323.15 K, 69.8 kPa) 2.06e-10 m2/s; (333.15 K, 74.9 kPa) 2.75e-10 m2/s; (343.15 K, 84.6 kPa) 3.47e-10 m2/s.
